This is an account of results in publication PMC4442108, “Preclinical Validation of the Heparin-Reactive Peptide p5+14 as a Molecular Imaging Agent for Visceral Amyloidosis” (Molecules, 2015).

In series [1] the target is T1, AA amyloid (Mus musculus, UniProt P05367).
T1 construct: organs known to develop AA amyloid in this mouse model; from tissue; host or cells: live H2/IL-6 transgenic Balb/c mice; liver, spleen, heart, kidney, pancreas
T1 sequence (P05367 20-95 limits assumed): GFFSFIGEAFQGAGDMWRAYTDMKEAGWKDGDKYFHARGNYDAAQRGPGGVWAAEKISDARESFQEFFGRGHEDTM
Description: Biodistribution, SPECT/CT and micro-autoradiography of 125I-p5+14 in mice with systemic AA amyloidosis. The format is in vivo, mouse (H2/IL-6 transgenic). As to the method: Systemic visceral AA amyloidosis was induced in H2-Ld-huIL-6 Tg Balb/c transgenic mice that constitutively express the human interleukin-6 transgene by iv injection of 10 µg of purified, splenic AA amyloid (amyloid enhancing factor; AEF) in 100 µL of sterile phosphate-buffered saline (PBS). Peptide was evaluated in mice at 4–6 wk post AEF injection when amyloid load was significant.
(§1) For serial SPECT/CT imaging in cohorts (n = 3) of AA and healthy wild type (WT) mice, peptide p5+14 (100 µg) was radioiodinated with ~4 mCi of ^125I (Perkin Elmer, Waltham, MA, USA), using 20 µg chloramine T as the oxidizing agent. After quenching the reaction with 20 µg sodium metabisulfite, the radiolabeled peptide was diluted into 0.1% sterile gelatin in PBS and free radioiodide removed by size exclusion chromatography on a 5 mL PD10 (GE Healthcare) solid phase equilibrated with 0.1% gelatin/PBS. Fractions 0f 200 µL were collected and those containing the maximal radioactivity (indicative of ^125I-p5+14) were pooled, and the product’s radiochemical purity was established by SDS polyacrylamide gel electrophoresis (PAGE) analyzed by phosphor imaging (Cyclone Storage Phosphor System, Perkin Elmer, Shelton, CT, USA).
Imaging was performed as described. Briefly, WT or AA amyloid mice (n = 3) were injected with ~3 µg of ^125I-p5+14, 125 µCi (specific activity ~40 µCi/µg) in the lateral tail vein. After the appropriate uptake time (1, 4, 24, and 48 h), mice were euthanized by isoflurane inhalation overdose. […]
(§2) Samples of liver, spleen, pancreas, kidneys, small and large intestines, stomach and heart were harvested post mortem from every mouse undergoing imaging with ^125I-p5+14 [45]. A sample of each was placed into a tared, plastic vial, weighed and the ^125I radioactivity measured using an automated Wizard 3 gamma counter (1480 Wallac Gamma Counter, Perkin Elmer). The biodistribution data were expressed as % injected dose/g tissue (%ID/g). […]

The test system of series [2] is synthetic rVλ6Wil fibrils. The format is binding, human. The settings on record: HSPG-free synthetic rVλ6Wil fibrils in suspension; PBST; 1 h RT; 125I-p5+14 ~5 ng. As to the method: Twenty-five microliters of 1 mg/mL AL extract, or synthetic rVλ6Wil variable domain fibrils were centrifuged in a 0.5 mL microfuge tube at 21,000× g for 5 min. The supernatant was discarded and pellet resuspended in 200 µL of PBS with 0.05% Tween-20 (PBST). Ten microliters of a 1:100 dilution of ^125I-p5+14 (~100,000 counts per minute (CPM); ~5 ng peptide) stock was added to the suspension. The mixture was rotated at RT for 1 h. Samples were then centrifuged twice at 15,000× g for 10 min. Supernatants and pellets were separated after each step and the radioactivity in each was measured using a Cobra II gamma counter (Perkin Elmer) with a 1 min acquisition. The percentage of ^125I-p5+14 bound to pellet was determined as follows: % Bound = Pellet CPM/(Pellet CPM + Supernatant CPM) × 100

The nature of series [3]: Biodistribution, SPECT/CT and micro-autoradiography of 125I-p5+14 in healthy wild type mice. It counts as in vivo, mouse (WT). As to the method: as §1
Imaging was performed as described. Briefly, WT or AA amyloid mice (n = 3) were injected with ~3 µg of ^125I-p5+14, 125 µCi (specific activity ~40 µCi/µg) in the lateral tail vein. After the appropriate uptake time (1, 4, 24, and 48 h), mice were euthanized by isoflurane inhalation overdose. SPECT images were acquired using an Inveon trimodality imaging platform (Siemens Preclinical Solution, Knoxville, TN, USA; [64]) running Inveon Acquisition Workplace software (ver. 2.0). Low energy (^125I; 25–45 keV) gamma photons were acquired at each of 60, 16-sec projections with 90 mm of bed travel. A 1 mm-diameter, 5-pinhole (Mouse Whole Body) collimator was used at 30 mm from the center of the field of view. […]
as §2

Series [4] concerns healthy tissue homogenates. Description: Peptide ex vivo binding assay, non-specific binding. The settings on record: data not shown.
Series [5] relates to human AL and ATTR amyloid in tissue sections. The experiment in a line: Peptide histochemistry and overlay micro-autoradiography on human tissue sections. To be noted: ~5 ng/mL, 1 h room temperature; FFPE human AL and ATTR sections. It counts as binding. As to the method:
For autoradiography, 6- μm-thick sections were cut from formalin-fixed, paraffin-embedded blocks, containing tissues from mice that had received ^125I-p5+14. Mice were euthanized at 1 h pi of radiotracer. The sections were placed on Plus microscope slides (ThermoFisher Scientific, Waltham, MA, USA), dipped in NTB-2 emulsion (Eastman Kodak, Rochester, NY, USA), stored in the dark and developed after a 4 day exposure. Each section was counterstained with hematoxylin and eosin. […] Blinded qualitative assessment of amyloid load in Congo red-stained sections of liver and spleen was performed by an experienced amyloid researcher who ranked each tissue on a 0 to 4+ scale. All tissue sections were examined using a Leica DM500 light microscope (Leica, Wetzlar, Germany) fitted with cross-polarizing filters (for Congo red). Digital microscopic images were acquired using a cooled CCD camera (SPOT; Diagnostic Instruments, Sterling Heights, MI, USA).
Peptide p5+14 (with a cysteine residue at the N-terminal) was prepared for tissue staining by either biotinylation, according to the manufacturer’s instructions, using a maleimide-biotin conjugation kit (Pierce, Grand Island, NY, USA), or for overlay-micoautoradiography by radioiodination with ^125I, as described above. […]

Where no end group is shown, it is not given here. [ ]: non-standard residue; d: D form. Tyr(3-I) = N[C@@H](Cc1ccc(O)c(I)c1)C(=O)O Some results are limits rather than exact numbers.

As to “GGG[Tyr(3-I)]SKAQKAQAKQAKQAQKAQKAQAKQAKQAQKAQKAQAKQAKQ [125I-p5+14]”, the “micro-autoradiographic distribution of radiolabeled peptide in tissues” value in series [1] (AA mice, 1 h pi, 6 µm tissue sections compared with Congo red) is recorded as “co-localized with amyloid in diseased tissues”; in series [3] (WT mice, 1 h pi, 6 µm tissue sections) it was “not retained by any cells or macroscopic structures in healthy tissues”. In series [1] (mice deemed amyloid-free by Congo red histochemical staining (cohort n = 34)), the “125I-p5+14 retention in the spleen” value is greater than 3 %ID/g. Further, the whole-body retention half-life in series [1] (mice with AA amyloidosis, iv ~3 µg 125I-p5+14, gamma counting up to 48 h pi, n = 3 per time point) was greater than 48 h; in series [3] (WT mice, iv ~3 µg 125I-p5+14, gamma counting up to 48 h pi, exponential fit, n = 3 per time point) it was ~ 1.5 h. In series [2], the “% bound” value is given as 95.7%. In series [3] (mouse, in vivo, iv, 3 ug, healthy mice, 2 h pi, read-out: retention of radioactivity in any organ), the tissue uptake at 2 h was less than 0.6 %ID/g. Further, in series [4], the non-specific binding is reported as ~ 10%. In series [5], the “overlay micro-autoradiography on human tissue sections” value was “co-localized with both AL and ATTR amyloid”.
